Measurements from PubChem BioAssay (NCI).
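Each compound was tested at five concentrations against cells in 96-well plates for 48 hours. TGI: concentration producing complete growth inhibition.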

Legend:
Assay in all cases: inhibition of tumour cell growth, NCI panel, 48 h
NCI-H460 lung = system: NCI-H460 lung
NCI/ADR-RES ovarian = system: NCI/ADR-RES ovarian
NCI-H522 lung = system: NCI-H522 lung
HOP-92 NSCLC = system: HOP-92 NSCLC
PC-3 prostate = system: PC-3 prostate
OVCAR-5 ovarian = system: OVCAR-5 ovarian
SR leukemia = system: SR leukemia
HCT-116 colon = system: HCT-116 colon
IGROV1 ovarian = system: IGROV1 ovarian
A549 NSCLC = system: A549 NSCLC
SNB-19 CNS = system: SNB-19 CNS
CAKI-1 renal = system: CAKI-1 renal
HCT-15 colon = system: HCT-15 colon
OVCAR-3 ovarian = system: OVCAR-3 ovarian
MDA-MB-231 breast = system: MDA-MB-231 breast
TK-10 renal = system: TK-10 renal
MOLT-4 leukemia = system: MOLT-4 leukemia
UACC-62 melanoma = system: UACC-62 melanoma
HCC-2998 colon = system: HCC-2998 colon
MDA-MB-435 = system: MDA-MB-435
LOX IMVI melanoma = system: LOX IMVI melanoma
NCI-H226 lung = system: NCI-H226 lung
OVCAR-4 ovarian = system: OVCAR-4 ovarian
UO-31 renal = system: UO-31 renal
HS 578T breast = system: HS 578T breast
SK-MEL-5 melanoma = system: SK-MEL-5 melanoma
MALME-3M melanoma = system: MALME-3M melanoma
BT-549 breast = system: BT-549 breast
UACC-257 melanoma = system: UACC-257 melanoma
K-562 leukemia = system: K-562 leukemia
T-47D breast = system: T-47D breast
SF-295 CNS = system: SF-295 CNS
RXF 393 renal = system: RXF 393 renal
U251 CNS = system: U251 CNS
786-0 renal = system: 786-0 renal
SK-MEL-2 melanoma = system: SK-MEL-2 melanoma
HT29 colon = system: HT29 colon
A498 renal = system: A498 renal
NCI-H23 lung = system: NCI-H23 lung
SF-268 CNS = system: SF-268 CNS
M14 melanoma = system: M14 melanoma
DU-145 prostate = system: DU-145 prostate
KM12 colon = system: KM12 colon
HOP-62 NSCLC = system: HOP-62 NSCLC
SN12C renal = system: SN12C renal
EKVX NSCLC = system: EKVX NSCLC
SW-620 colon = system: SW-620 colon
ACHN renal = system: ACHN renal
SNB-75 CNS = system: SNB-75 CNS
MDA-N = system: MDA-N
SK-MEL-28 melanoma = system: SK-MEL-28 melanoma
COLO 205 colon = system: COLO 205 colon
SK-OV-3 ovarian = system: SK-OV-3 ovarian
OVCAR-8 ovarian = system: OVCAR-8 ovarian
SF-539 CNS = system: SF-539 CNS
MCF7 breast = system: MCF7 breast
RPMI-8226 leukemia = system: RPMI-8226 leukemia
HL-60(TB) leukemia = system: HL-60(TB) leukemia
CCRF-CEM leukemia = system: CCRF-CEM leukemia

## N/C(CC/C(N)=N\O)=N\O
NCI-H460 lung
  TGI: > 100 µM
NCI/ADR-RES ovarian
  TGI: > 100 µM
NCI-H522 lung
  TGI: > 100 µM
HOP-92 NSCLC
  TGI: > 100 µM
PC-3 prostate
  TGI: > 100 µM
OVCAR-5 ovarian
  TGI: > 100 µM
SR leukemia
  TGI: > 100 µM
HCT-116 colon
  TGI: > 100 µM
IGROV1 ovarian
  TGI: > 100 µM
A549 NSCLC
  TGI: > 100 µM
SNB-19 CNS
  TGI: > 100 µM
CAKI-1 renal
  TGI: > 100 µM
HCT-15 colon
  TGI: > 100 µM
OVCAR-3 ovarian
  TGI: > 100 µM
MDA-MB-231 breast
  TGI: > 100 µM
TK-10 renal
  TGI: > 100 µM
MOLT-4 leukemia
  TGI: > 100 µM
UACC-62 melanoma
  TGI: > 100 µM
HCC-2998 colon
  TGI: > 100 µM
MDA-MB-435
  TGI: > 100 µM
LOX IMVI melanoma
  TGI: > 100 µM
NCI-H226 lung
  TGI: > 100 µM
OVCAR-4 ovarian
  TGI: > 100 µM
UO-31 renal
  TGI: > 100 µM
HS 578T breast
  TGI: > 100 µM
SK-MEL-5 melanoma
  TGI: > 100 µM
MALME-3M melanoma
  TGI: > 100 µM
BT-549 breast
  TGI: > 100 µM
UACC-257 melanoma
  TGI: > 100 µM
K-562 leukemia
  TGI: > 100 µM
T-47D breast
  TGI: > 100 µM
SF-295 CNS
  TGI: > 100 µM
RXF 393 renal
  TGI: > 100 µM
U251 CNS
  TGI: > 100 µM
786-0 renal
  TGI: > 100 µM
SK-MEL-2 melanoma
  TGI: > 100 µM
HT29 colon
  TGI: > 100 µM
A498 renal
  TGI: > 100 µM
NCI-H23 lung
  TGI: > 100 µM
SF-268 CNS
  TGI: > 100 µM
M14 melanoma
  TGI: > 100 µM
DU-145 prostate
  TGI: > 100 µM
KM12 colon
  TGI: > 100 µM
HOP-62 NSCLC
  TGI: > 100 µM
SN12C renal
  TGI: > 100 µM
EKVX NSCLC
  TGI: > 100 µM
SW-620 colon
  TGI: > 100 µM
ACHN renal
  TGI: > 100 µM
SNB-75 CNS
  TGI: > 100 µM
MDA-N
  TGI: > 100 µM
SK-MEL-28 melanoma
  TGI: > 100 µM

## CC(C)(C)C1CCC2c3c([nH]c4ccccc34)C3C(=O)N(c4cc(Br)cc(Br)c4)C(=O)C3C2C1 (configuration not stated)
COLO 205 colon
  TGI: > 100 µM
NCI-H460 lung
  TGI: 74.2 µM
NCI/ADR-RES ovarian
  TGI: 40.8 µM
NCI-H522 lung
  TGI: 66.4 µM
HOP-92 NSCLC
  TGI: 8.82 µM
PC-3 prostate
  TGI: 33.2 µM
OVCAR-5 ovarian
  TGI: > 100 µM
SR leukemia
  TGI: 82.4 µM
HCT-116 colon
  TGI: 23.1 µM
IGROV1 ovarian
  TGI: > 100 µM
A549 NSCLC
  TGI: > 100 µM
CAKI-1 renal
  TGI: 66.6 µM
HCT-15 colon
  TGI: > 100 µM
MDA-MB-231 breast
  TGI: 58.8 µM
SK-OV-3 ovarian
  TGI: > 100 µM
TK-10 renal
  TGI: 59.2 µM
MOLT-4 leukemia
  TGI: 38.2 µM
UACC-62 melanoma
  TGI: > 100 µM
HCC-2998 colon
  TGI: 24.7 µM
MDA-MB-435
  TGI: 77.2 µM
OVCAR-8 ovarian
  TGI: 50.2 µM
LOX IMVI melanoma
  TGI: > 100 µM
NCI-H226 lung
  TGI: 75.6 µM
OVCAR-4 ovarian
  TGI: 69.7 µM
SF-539 CNS
  TGI: 34 µM
UO-31 renal
  TGI: 46.2 µM
HS 578T breast
  TGI: 30.8 µM
SK-MEL-5 melanoma
  TGI: > 100 µM
MCF7 breast
  TGI: 17.5 µM
MALME-3M melanoma
  TGI: > 100 µM
BT-549 breast
  TGI: > 100 µM
UACC-257 melanoma
  TGI: > 100 µM
RPMI-8226 leukemia
  TGI: > 100 µM
U251 CNS
  TGI: 30.3 µM
786-0 renal
  TGI: 18.6 µM
SK-MEL-2 melanoma
  TGI: 47.5 µM
HT29 colon
  TGI: > 100 µM
A498 renal
  TGI: 68.4 µM
NCI-H23 lung
  TGI: 63.3 µM
M14 melanoma
  TGI: > 100 µM
DU-145 prostate
  TGI: > 100 µM
HL-60(TB) leukemia
  TGI: 5.82 µM
KM12 colon
  TGI: > 100 µM
HOP-62 NSCLC
  TGI: 69.6 µM
SN12C renal
  TGI: 29.1 µM
EKVX NSCLC
  TGI: 59.4 µM
SW-620 colon
  TGI: > 100 µM
ACHN renal
  TGI: > 100 µM
MDA-N
  TGI: > 100 µM
CCRF-CEM leukemia
  TGI: 25.1 µM
SK-MEL-28 melanoma
  TGI: 25.9 µM
